Test [1] deals with T1, Endoribonuclease toxin MazF (Escherichia coli K-12, UniProt P0AE70).
T1 sequence (P0AE70 whole entry): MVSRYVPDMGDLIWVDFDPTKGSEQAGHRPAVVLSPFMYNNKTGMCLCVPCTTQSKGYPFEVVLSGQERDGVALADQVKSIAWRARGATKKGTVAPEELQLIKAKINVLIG
Nature of the test: substrate-only fluorescence increase artefacts – biochemical, single-stranded RNase substrate, counter-screen for MazEF activator project, dose response (AID 588502). The class given is functional.

Test [2] addresses T2, 1-phosphatidylinositol 4,5-bisphosphate phosphodiesterase beta-3 (Homo sapiens, UniProt Q01970).
T2 sequence (Q01970 whole entry): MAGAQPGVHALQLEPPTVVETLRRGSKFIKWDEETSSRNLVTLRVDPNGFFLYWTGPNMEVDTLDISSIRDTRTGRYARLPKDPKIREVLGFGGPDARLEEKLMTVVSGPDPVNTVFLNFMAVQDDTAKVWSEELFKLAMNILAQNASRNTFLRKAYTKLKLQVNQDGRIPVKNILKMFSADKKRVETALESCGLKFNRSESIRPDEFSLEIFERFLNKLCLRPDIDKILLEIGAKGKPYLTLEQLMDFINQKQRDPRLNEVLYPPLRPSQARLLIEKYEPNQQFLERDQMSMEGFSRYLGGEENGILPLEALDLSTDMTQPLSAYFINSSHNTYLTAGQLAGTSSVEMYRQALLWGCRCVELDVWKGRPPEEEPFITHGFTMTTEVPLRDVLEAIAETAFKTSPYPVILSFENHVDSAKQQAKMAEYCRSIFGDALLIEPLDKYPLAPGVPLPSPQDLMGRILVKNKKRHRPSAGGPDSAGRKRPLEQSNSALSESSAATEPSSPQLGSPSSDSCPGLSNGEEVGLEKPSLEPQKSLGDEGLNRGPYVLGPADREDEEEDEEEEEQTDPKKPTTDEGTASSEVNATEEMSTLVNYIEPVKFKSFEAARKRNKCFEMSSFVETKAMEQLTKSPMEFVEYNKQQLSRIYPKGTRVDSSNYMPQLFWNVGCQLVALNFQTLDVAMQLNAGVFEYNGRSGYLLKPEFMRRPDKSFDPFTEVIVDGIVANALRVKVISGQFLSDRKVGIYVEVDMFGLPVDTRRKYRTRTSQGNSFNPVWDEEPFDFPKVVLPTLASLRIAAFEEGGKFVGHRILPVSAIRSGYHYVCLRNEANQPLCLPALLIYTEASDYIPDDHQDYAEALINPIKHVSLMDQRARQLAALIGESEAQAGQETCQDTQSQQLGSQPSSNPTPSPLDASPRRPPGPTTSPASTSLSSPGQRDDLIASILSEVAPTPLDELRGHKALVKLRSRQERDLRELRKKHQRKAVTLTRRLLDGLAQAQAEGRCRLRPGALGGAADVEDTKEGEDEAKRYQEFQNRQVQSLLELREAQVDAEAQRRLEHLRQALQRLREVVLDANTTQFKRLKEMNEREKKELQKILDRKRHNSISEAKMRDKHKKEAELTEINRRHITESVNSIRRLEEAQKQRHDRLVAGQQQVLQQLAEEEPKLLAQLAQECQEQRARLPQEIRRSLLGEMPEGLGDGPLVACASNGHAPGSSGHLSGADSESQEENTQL
Description: Fluorescence-based biochemical high throughput dose response assay to identify inhibitors of phospholipase C isozymes (PLC-B3).

This is an account of results in ChEMBL document CHEMBL1201862, “PubChem BioAssay data set” (2004).

Active and inactive are the calls of the source.

Usually EC50 stands for the concentration that produces a half-maximal response. One may read the IC50 as the concentration needed to halve the response being measured. As for `Oc1ccc(/C=N/NC(=S)Nc2cccnc2)c(O)c1O`, the EC50 in test [1] was > 99 µM (inactive). In addition, the IC50 in test [2] was > 122 µM (inactive).
